Laboratory results reported in ChEMBL document CHEMBL1201862, “PubChem BioAssay data set” (2004).
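48-hour exposure; five concentrations; linearly interpolated endpoints. GI50: concentration for 50% inhibition of growth.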 Active and inactive are the calls of the source. No stated cut-off is given here; in the data, active = GI50 up to about 1.1 µM and inactive = higher.

Key:
Assay in all cases: DTP human tumour cell line panel, 48 h
SR = system: SR
MDA-MB-435 = system: MDA-MB-435
HCT-116 = system: HCT-116
SK-MEL-2 = system: SK-MEL-2
Hs-578T = system: Hs-578T
UACC-257 = system: UACC-257
A549 = system: A549
OVCAR-3 = system: OVCAR-3
SNB-19 = system: SNB-19
M14 = system: M14
IGROV-1 = system: IGROV-1
HL-60 = system: HL-60
NCI-H522 = system: NCI-H522
HCT-15 = system: HCT-15
UACC-62 = system: UACC-62
HOP-92 = system: HOP-92
MOLT-4 = system: MOLT-4
BT-549 = system: BT-549
U-251 = system: U-251
LOX IMVI = system: LOX IMVI
OVCAR-8 = system: OVCAR-8
SNB-75 = system: SNB-75
SF-268 = system: SF-268
RXF 393 = system: RXF 393
SW-620 = system: SW-620
SF-295 = system: SF-295
SF-539 = system: SF-539
HOP-62 = system: HOP-62
786-0 = system: 786-0
NCI/ADR-RES = system: NCI/ADR-RES
KM12 = system: KM12
CCRF-CEM = system: CCRF-CEM
COLO 205 = system: COLO 205
RPMI-8226 = system: RPMI-8226
NCI-H226 = system: NCI-H226
CAKI-1 = system: CAKI-1
DU-145 = system: DU-145
NCI-H23 = system: NCI-H23
SN12C = system: SN12C
SK-OV-3 = system: SK-OV-3
PC-3 = system: PC-3
Malme-3M = system: Malme-3M
NCI-H460 = system: NCI-H460
HT-29 = system: HT-29
MDA-MB-231 = system: MDA-MB-231
A498 = system: A498
OVCAR-5 = system: OVCAR-5
SK-MEL-28 = system: SK-MEL-28
TK-10 = system: TK-10
OVCAR-4 = system: OVCAR-4
K562 = system: K562
MCF7 = system: MCF7
SK-MEL-5 = system: SK-MEL-5
ACHN = system: ACHN
UO-31 = system: UO-31
EKVX = system: EKVX
MDA-N = system: MDA-N
HCC 2998 = system: HCC 2998

Cn1c2ccccc2c2nc3ccccc3c(Cl)c21
GI50 (SR): > 100 µM (inactive)
GI50 (MDA-MB-435): > 100 µM (inactive)
GI50 (HCT-116): > 100 µM (inactive)
GI50 (SK-MEL-2): > 100 µM (inactive)
GI50 (Hs-578T): > 100 µM (inactive)
GI50 (UACC-257): > 100 µM (inactive)
GI50 (A549): > 100 µM (inactive)
GI50 (OVCAR-3): > 100 µM (inactive)
GI50 (SNB-19): > 100 µM (inactive)
GI50 (M14): > 100 µM (inactive)
GI50 (IGROV-1): > 100 µM (inactive)
GI50 (HL-60): > 100 µM (inactive)
GI50 (NCI-H522): > 100 µM (inactive)
GI50 (HCT-15): > 100 µM
GI50 (UACC-62): 92.5 µM (inactive)
GI50 (HOP-92): > 10 µM (inactive)
GI50 (MOLT-4): > 100 µM (inactive)
GI50 (BT-549): > 100 µM (inactive)
GI50 (U-251): 55.8 µM (inactive)
GI50 (LOX IMVI): > 100 µM (inactive)
GI50 (OVCAR-8): > 100 µM (inactive)
GI50 (SNB-75): 23.4 µM (inactive)
GI50 (SF-268): > 100 µM (inactive)
GI50 (RXF 393): 37.9 µM (inactive)
GI50 (SW-620): > 100 µM (inactive)
GI50 (SF-295): > 100 µM (inactive)
GI50 (SF-539): > 100 µM (inactive)
GI50 (HOP-62): > 100 µM (inactive)
GI50 (786-0): > 100 µM (inactive)
GI50 (NCI/ADR-RES): > 100 µM (inactive)
GI50 (KM12): > 100 µM (inactive)
GI50 (CCRF-CEM): > 100 µM (inactive)
GI50 (COLO 205): > 100 µM (inactive)
GI50 (RPMI-8226): > 100 µM (inactive)
GI50 (NCI-H226): > 100 µM (inactive)
GI50 (CAKI-1): > 100 µM (inactive)
GI50 (DU-145): > 100 µM (inactive)
GI50 (NCI-H23): 36.2 µM (inactive)
GI50 (SN12C): > 100 µM (inactive)
GI50 (SK-OV-3): 35.9 µM (inactive)
GI50 (PC-3): > 100 µM (inactive)
GI50 (Malme-3M): > 100 µM (inactive)
GI50 (NCI-H460): > 100 µM (inactive)
GI50 (HT-29): > 100 µM (inactive)
GI50 (MDA-MB-231): > 100 µM (inactive)
GI50 (A498): > 100 µM (inactive)
GI50 (OVCAR-5): 49 µM (inactive)
GI50 (SK-MEL-28): > 100 µM (inactive)
GI50 (TK-10): > 100 µM (inactive)
GI50 (OVCAR-4): > 100 µM (inactive)
GI50 (K562): > 100 µM (inactive)
GI50 (MCF7): > 100 µM (inactive)

CCC(C)C(Nc1c2ccccc2nc2c(C(=O)NCCN(C)C)cccc12)C(=O)O (centres undefined)
GI50 (SR): 46.6 µM (inactive)
GI50 (MDA-MB-435): 18.1 µM (inactive)
GI50 (HCT-116): 4.28 µM (inactive)
GI50 (SK-MEL-2): 19.4 µM (inactive)
GI50 (Hs-578T): 18.4 µM (inactive)
GI50 (A549): 12.3 µM (inactive)
GI50 (OVCAR-3): 23.6 µM (inactive)
GI50 (SNB-19): 8.28 µM (inactive)
GI50 (M14): 16.2 µM (inactive)
GI50 (IGROV-1): 14.7 µM (inactive)
GI50 (NCI-H522): 12.7 µM (inactive)
GI50 (SK-MEL-5): 15.7 µM (inactive)
GI50 (HCT-15): 7.45 µM
GI50 (UACC-62): 15.9 µM (inactive)
GI50 (HOP-92): 11.8 µM (inactive)
GI50 (MOLT-4): 7.59 µM (inactive)
GI50 (U-251): 25.2 µM (inactive)
GI50 (LOX IMVI): 4.8 µM (inactive)
GI50 (OVCAR-8): 4.45 µM (inactive)
GI50 (SNB-75): 18 µM (inactive)
GI50 (ACHN): 7.94 µM (inactive)
GI50 (UO-31): 8.83 µM (inactive)
GI50 (SF-268): 13.6 µM (inactive)
GI50 (EKVX): 16.2 µM (inactive)
GI50 (SW-620): 9.16 µM (inactive)
GI50 (SF-295): 12.3 µM (inactive)
GI50 (HOP-62): 13 µM (inactive)
GI50 (786-0): 9.89 µM (inactive)
GI50 (NCI/ADR-RES): 10.4 µM (inactive)
GI50 (KM12): 14.8 µM (inactive)
GI50 (CCRF-CEM): 24.3 µM (inactive)
GI50 (COLO 205): 6.15 µM (inactive)
GI50 (RPMI-8226): 28.8 µM (inactive)
GI50 (MDA-N): 17.2 µM (inactive)
GI50 (NCI-H226): 6.92 µM (inactive)
GI50 (DU-145): 38.1 µM (inactive)
GI50 (NCI-H23): 20.2 µM (inactive)
GI50 (SN12C): 13.6 µM (inactive)
GI50 (SK-OV-3): 22 µM (inactive)
GI50 (PC-3): 14 µM (inactive)
GI50 (Malme-3M): 12.3 µM (inactive)
GI50 (HT-29): 3.21 µM (inactive)
GI50 (MDA-MB-231): 17.6 µM (inactive)
GI50 (A498): 16.9 µM (inactive)
GI50 (OVCAR-5): 21.3 µM (inactive)
GI50 (SK-MEL-28): 23.6 µM (inactive)
GI50 (TK-10): 38.5 µM (inactive)
GI50 (OVCAR-4): 5.83 µM (inactive)
GI50 (K562): 21.6 µM (inactive)
GI50 (MCF7): 5.86 µM (inactive)

CCOC(=O)C(O)(NC(=O)NC(O)(C(=O)OCC)C(F)(F)F)C(F)(F)F (centres undefined)
GI50 (SR): > 100 µM (inactive)
GI50 (HCT-116): > 100 µM (inactive)
GI50 (SK-MEL-2): > 100 µM (inactive)
GI50 (UACC-257): > 100 µM (inactive)
GI50 (SNB-19): > 100 µM (inactive)
GI50 (HCC 2998): > 100 µM (inactive)
GI50 (HL-60): > 100 µM (inactive)
GI50 (HCT-15): > 100 µM
GI50 (MOLT-4): > 100 µM (inactive)
GI50 (U-251): > 100 µM (inactive)
GI50 (LOX IMVI): > 100 µM (inactive)
GI50 (SNB-75): > 100 µM (inactive)
GI50 (ACHN): > 100 µM (inactive)
GI50 (UO-31): > 100 µM (inactive)
GI50 (SF-268): > 100 µM (inactive)
GI50 (RXF 393): > 100 µM (inactive)
GI50 (SF-539): > 100 µM (inactive)
GI50 (786-0): > 100 µM (inactive)
GI50 (NCI/ADR-RES): > 100 µM (inactive)
GI50 (CCRF-CEM): > 100 µM (inactive)
GI50 (COLO 205): > 100 µM (inactive)
GI50 (RPMI-8226): > 100 µM (inactive)
GI50 (MDA-N): > 100 µM (inactive)
GI50 (NCI-H23): > 100 µM (inactive)
GI50 (SN12C): > 100 µM (inactive)
GI50 (SK-OV-3): > 100 µM (inactive)
GI50 (PC-3): > 100 µM (inactive)
GI50 (HT-29): > 100 µM (inactive)
GI50 (A498): > 100 µM (inactive)
GI50 (OVCAR-5): > 100 µM (inactive)
GI50 (SK-MEL-28): > 100 µM (inactive)
GI50 (K562): > 100 µM (inactive)
